The text below walks through data of patent US20170166555A1, “FUNCTIONALISED AND SUBSTITUTED INDOLES AS ANTI-CANCER AGENTS” (Novogen Limited, priority 2013, published 2017).

Experiment [1] has as its system neuroblastoma (SH-EP) cells. Briefly: Cell viability assay (MTT, 48 hr). The format is cell-based. Conditions: 48 hr treatment, read-out: IC50 (μM) SHEP. How it is done:
(§1) Cell viability assays were also conducted to assess the anti-proliferative effects of the anti-tropomyosin compounds 4001-4015. Briefly, cells (1×10^3/well) were plated (96-well) and treated (48 hr) with anti-tropomyosin drug and viability measured using 3-(4,5-dimethylthiazol-2-yl)-2,5-diphenylterazolium bromide MTT. Cell viability was normalized to control (vehicle alone) and dose-response curves, and half maximal effective concentration (EC50) values were determined using Graph Pad Prism 5 (nonlinear regression sigmoidal dose-response variable slope).

Experiment [2] concerns melanoma (SK-Mel-28) cells. Put plainly: Cell viability assay (MTT, 48 hr). The format is cell-based. Conditions: Homo sapiens, 48 hr treatment, read-out: IC50 (μM) SKMEL28. How it is done: as §1
Experiment [3] deals with CaCo2 colorectal cancer cells. Briefly: Anti-proliferative assay, cell-titre luminescent reagent, 72 h (GVK-BIO). Conditions: Homo sapiens. Type of experiment: cell-based. The essentials: (§2)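 Two dose schemes were used: 30, 3, 0.3, 0.03 μM, giving IC50 by linear regression of percent of control against log concentration; and 30, 10, 3, 1, 0.3, 0.1 μM, giving EC50 by nonlinear variable-slope regression after normalizing to vehicle. Cells had attached for 24 h beforehand.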

Experiment [4] has as its system PC3 prostate cancer cells. Described as above. The format is cell-based. An outline of the steps:
as §2

Experiment [5] concerns A549 non-small cell lung carcinoma cells. The experiment is described as above. To be noted: Homo sapiens, read-out: IC50/μM Lung (NSLC) A549. The format is cell-based. An outline of the steps:
as §2

In experiment [6] the test system is DU145 prostate cancer cells. The description is as above. The format is cell-based. To be noted: Homo sapiens. The essentials:
as §2

A further experiment relates to SK-Mel-28 melanoma cells. The description is as above. The format is cell-based. Conditions: Homo sapiens. The essentials: as §2
The subject of experiment [7] is MDA-MB-231 triple negative breast cancer cells. Described as above. The format is cell-based. To be noted: Homo sapiens. The essentials:
as §2

Experiment [8] relates to SK-N-SH neuroblastoma cells. Described as above. To be noted: Homo sapiens. Type of experiment: cell-based. The essentials: as §2
The test system of experiment [9] is non-transfected and Tm5NM1 stably transfected MEFs. Briefly: MTT viability in non-transfected versus Tm5NM1 stably transfected MEFs. The format is cell-based, mouse. Conditions: 48 hr, FIG. 1. How it is done: FIG. 1: Activity of selected compounds against Tm5NM1/2 transfected mouse embryonic fibroblasts versus non-transfected MEFs.
Compounds 4001, 4010, 4014, 4008 and 4015 were then screened against non-transfected and Tm5NM1 stably transfected MEFs. Briefly, MEFs were transfected with pEYFP-C1/Tm5NM1 constructs using the Amaxa nucleofector apparatus (program A-023) and MEF nucleofector kit 1 (Lonza) according to the manufacturer's instructions. Cell viability assays were also conducted to assess the anti-proliferative effects of the anti-tropomyosin compounds. Briefly, cells (1×10^3/well) were plated (96-well) and treated (48 hr) with anti-tropomyosin compounds and viability measured using 3-(4,5-dimethylthiazol-2-yl)-2, 5-diphenylterazolium bromide MTT. Cell viability was normalized to control (vehicle alone) and dose-response curves, and half maximal effective concentration (EC50) values were determined using Graph Pad Prism 5 (nonlinear regression sigmoidal dose-response variable slope).

Experiment [10] has as its system total actin cytoskeleton in SK-N-SH neuroblastoma cells. Put plainly: Microfilament disruption assay, 488-Atto-Phallodin imaging and filament quantitation. Conditions: 0-40 μM, 24 h, FIG. 2. The format is cell-based. How it is done: (§3) FIG. 2: Imaging and quantitation of actin filaments in SK—N—SH neuroblastoma cells treated with compound (A) 4093 and (B) 4113. Cells were stained with 488-Atto-Phallodin and DAPI to visualize the actin filament bundles and the nucleus, respectively. Shown in the top panel is a representative grey scale immunofluorescent image from control (vehicle alone), 5 μM and 10 μM treated cells. […] The coloured lines indicate the detected actin filaments. Also shown is the quantitation of cell number, filament number/cell and filament number/cell area ([…]). […]
(§4) The ability of compounds 4093 and 4113 to disrupt the total actin cytoskeleton (FIG. 2) and to specifically target Tm5NM1-containing actin filaments (FIG. 3) was assessed in vitro using the microfilament disruption assay.
(§5) Briefly, SK-N-SH neuroblastoma cells were seeded at 1800 cells/well in a 384 Perkin Elmer High Content Imaging “View” plate and left to plate down 24 h prior to treatment. […] Images were then exported and changes in the organization and numbers of actin filaments within the cell were quantitated using a linear feature detection algorithm developed by the CSIRO. […] It is these “ridge lines” that correspond to actin filament bundles and allow us to quantitate the number of filaments per cell.

The subject of experiment [11] is Tm5NM1-containing actin filaments in SK-N-SH neuroblastoma cells. Briefly: Microfilament disruption assay, γ9d staining imaging and filament quantitation. Type of experiment: cell-based. To be noted: 0-40 μM, 24 h, FIG. 3. How it is done: as §3, with “FIG. 3:” for “FIG. 2:”, “with γ9d (sheep polycolonal, 1:100) followed by 488-conjugated secondary (1:1000)” for “with 488-Atto-Phallodin”, “the Tm5NM1 containing” for “the actin”
as §4, §5

Where [12] appears, read: Caco-2, 72 h, 30, 3, 0.3 and 0.03 μM, linear regression (Tables 2-4).
[13] abbreviates: 30, 3, 0.3 and 0.03 μM, linear regression (Tables 2-4).
The mark [14] stands for this setting: A549, 72 h, 30, 3, 0.3 and 0.03 μM, linear regression (Tables 2-4).
The mark [15] stands for this setting: DU-145, 72 h, 30, 3, 0.3 and 0.03 μM, linear regression (Tables 2-4).
Where [16] appears, read: SK-MEL-28, 72 h, 30, 3, 0.3 and 0.03 μM, linear regression (Tables 2-4).
[17] abbreviates: MDA-MB-231, 72 h, 30, 3, 0.3 and 0.03 μM, linear regression (Tables 2-4).
[18] abbreviates: SK-N-SH, 30, 3, 0.3 and 0.03 μM, linear regression (Tables 2-4).

Read-outs that look alike come from different tables or passages of the source.

As for `CN(C)CCCn1ccc2cc(Cc3ccc(C(=O)Nc4ccccc4)cc3)ccc21` [Compound 4001, 4-((1-(3-(dimethylamino)propyl)-1H-indol-5-yl)methyl)-N-phenylbenzamide], the IC50 in [1] came to 4.63 µM; in [2], 4.3 µM; in experiment [3] (setting [12]), 3 µM; in experiment [4] (setting [13]), 2.8 µM; in experiment [5] (setting [14]), 2.7 µM; in experiment [6] (setting [15]), 3.2 µM. Further, the values for the IC50 (with SK-Mel-28 melanoma cells (setting [16]); in experiment [7] (setting [17]); in experiment [8] (setting [18])) were 3.6 µM, 3.1 µM and 4.1 µM, respectively. Further, the “Selectivity: toxicity against primary MEFs versus MEFs stably transfected with Tm5NM1/2” value in experiment [9] is reported as “less toxicity noted against primary mouse embryonic fibroblasts (MEFs) compared with MEFs stably transfected with Tm5NM1/2”.

As to `Cc1c(C)n(CCCN2CCN(C)CC2)c2ccc(CN3CCN(CCc4ccc5c(c4)OCO5)CC3)cc12` [Compound 4113, 5-((4-(2-(benzo[d][1,3]dioxol-5-yl)ethyl)piperazin-1-yl)methyl)-2,3-dimethyl-1-(3-(4-methylpiperazin-1-yl)propyl)-1H-indole], the IC50 turned out to be 4.6 µM in [3] (Caco-2, 72 h, 30, 10, 3, 1, 0.3 and 0.1 μM, nonlinear regression (Table 5)); 11.4 µM in experiment [4] (30, 10, 3, 1, 0.3 and 0.1 μM, nonlinear regression (Table 5)); 5.2 µM in experiment [5] (A549, 72 h, 30, 10, 3, 1, 0.3 and 0.1 μM, nonlinear regression (Table 5)); 5.4 µM in experiment [6] (DU-145, 72 h, 30, 10, 3, 1, 0.3 and 0.1 μM, nonlinear regression (Table 5)); 0.9 µM in the experiment on SK-Mel-28 melanoma cells (SK-MEL-28, 72 h, 30, 10, 3, 1, 0.3 and 0.1 μM, nonlinear regression (Table 5)); 2.8 µM in [7] (MDA-MB-231, 72 h, 30, 10, 3, 1, 0.3 and 0.1 μM, nonlinear regression (Table 5)). In experiment [8] (SK-N-SH, 30, 10, 3, 1, 0.3 and 0.1 μM, nonlinear regression (Table 5)), this compound returned an IC50 of 1.7 µM. In experiment [10], the “Disruption of the total actin cytoskeleton” value is “disrupt both the total actin cytoskeleton and Tm5NM1-containing actin filaments in a dose-dependent manner”. Further, the “Disruption of Tm5NM1-containing actin filaments” value in experiment [11] is “disrupt both the total actin cytoskeleton and Tm5NM1-containing actin filaments in a dose-dependent manner”.

For `Cc1c(C)n(CCCN(C)C)c2ccc(Nc3ccc(C(=O)Nc4ccccc4)cc3)cc12` [Compound 4010, 4-((1-(3-(dimethylamino)propyl)-2,3-dimethyl-1H-indol-5-yl)amino)-N-phenylbenzamide], the IC50 amounted to 6.4 µM in [1]; 3.4 µM in experiment [2]; 3.5 µM in experiment [3] (setting [12]); 4 µM in experiment [4] (setting [13]); 2.8 µM in [5] (setting [14]); 3.4 µM in [6] (setting [15]). The IC50 in the experiment with SK-Mel-28 melanoma cells (setting [16]) amounted to 3.4 µM; in experiment [7] (setting [17]) it was 2.6 µM; in [8] (setting [18]), 3.6 µM. Moreover, in experiment [9], the “Selectivity: toxicity against primary MEFs versus MEFs stably transfected with Tm5NM1/2” value is “less toxicity noted against primary mouse embryonic fibroblasts (MEFs) compared with MEFs stably transfected with Tm5NM1/2”.
